Results on 22 compounds are retold here after patent publication US12251370B2, “Small molecule inhibitors of the BfrB:Bfd interaction” (BOARD OF SUPERVISORS OF LOUISIANA STATE UNIVERSITY AND …, priority 2018, dated 2025).

Test [1] concerns A. baumannii. In words: Growth curves and IC50 determination in A. baumannii. The note with it: AB5075, modified M63 media, 48 well-plates. It is filed as cell-based, Acinetobacter baumannii (AB5075). The procedure:
(§1) Pre-cultures (5 mL LB media) were grown for 12 h at 37° C. and 220 rpm in 50 mL conical tubes (VWR International, PA) covered with an air permeable membrane. The cells were then centrifuged at 4,000 rpm for 10 min, the resultant cell pellets washed twice in M63 media and then diluted in M63 media to OD600=0.01. Stock solutions (100 mM) of analog in DMSO were prepared weekly and stored at 4° C. Prior to initiating experiments in 96 well plates, the analog stock solution was serially diluted to make 10 mM or 1 mM working solutions in DMSO. A small volume of the appropriate working solution was transferred to a glass vial, diluted with DMSO to 30 μL, and then diluted to a final volume of 1.5 mL with pre-culture cell suspension with an OD600=0.01. The resultant cell suspension (200 μL) was transferred to a clear-bottom polystyrene 96 well plate (VWR), and incubated at 35° C. and 205 cpm for 13 h in an Epoch 2 microplate spectrophotometer (Biotek Instruments, Inc., Vermont). The growth curve in the presence of Ciprofloxacin was obtained in the same plate. […] MIC determinations were carried out using standard broth microdilution methods in 48 well plates and modified M63 media. Cells were incubated at 35° C.
This idea was tested with A. baumanni AB5075, a highly virulent isolate, which has been proposed as a model strain for the evaluation of pathogenesis and antimicrobial treatments.^66.

Test [2] deals with P. aeruginosa. As to the kind of experiment: Growth curves and IC50 determination in P. aeruginosa. The class given is cell-based, Pseudomonas aeruginosa (PAO1). The note with it: M63 media, growth % from OD600 at 13 h, three independent experiments. The procedure: as §1
The subject of test [3] is A. baumannii. In words: MIC determination by broth microdilution in A. baumannii. It is filed as cell-based, Acinetobacter baumannii (AB5075). The note with it: modified M63 media, 35° C.; for MIC: Acinetobacter baumannii. The procedure:
as §1, with “M63” left out, “A small volume of the appropriate working solution was transferred to a glass vial, diluted with DMSO to 30 μL, and then diluted to a final volume of 1.5 mL with pre-culture cell suspension with an OD600=0.01.” left out
For orientation: Broth dilution looks for growth in wells or tubes with falling amounts of substance.

Another test deals with BfrB (Pseudomonas aeruginosa, UniProt Q9HY79). In words: STD NMR fragment screening with Bfd competitive displacement. The class given is binding. Particulars: STD NMR with Bfd as specific competitor. An excerpt: Fragment Library Screening Using Saturation Transfer Difference (STD) NMR Spectroscopy
BfrB, sequence (Q9HY79 whole entry, the tested form may be a part): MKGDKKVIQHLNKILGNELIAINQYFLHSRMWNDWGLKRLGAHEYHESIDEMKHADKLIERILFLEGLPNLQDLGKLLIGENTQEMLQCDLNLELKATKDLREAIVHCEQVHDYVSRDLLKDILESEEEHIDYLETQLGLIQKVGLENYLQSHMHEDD
Structural information obtained from the BfrB-Bfd complex was used to design a fragment library to screen for molecules that bind BfrB at the Bfd-binding site. […] In addition, fragments capable of π-π stacking were included with both electron rich and deficient aromatic rings. To screen the library in search of fragments that bind BfrB at the Bfd-binding site a competition assay was developed that utilizes saturation transfer difference (STD) NMR spectroscopy. This technique is ideally suited to screen fragments that bind to the large BfrB (˜440 kDa) because protein resonance assignments are not necessary and very low protein concentrations are required. In addition, the large rotational correlation time (τc) of BfrB enhances spin diffusion and therefore saturation transfer within the protein and to the ligand.^51 Two solutions were prepared for each fragment: a solution of the fragment alone, and a solution of the fragment and BfrB. Three spectra were obtained for each fragment. The ^1H spectrum of the fragment alone was used to determine fragment integrity and solubility, the ^1H spectrum of the fragment in the presence of BfrB was used to corroborate that fragment integrity and solubility is not affected by BfrB, and the STD spectrum of the solution containing the fragment and BfrB was used to assess fragment binding. This strategy uncovered 18 compounds that bind BfrB. The specificity criterion for fragment binders, however, is that these bind BfrB specifically at the Bfd-binding site. To eliminate non-specific binders, a displacement strategy was implemented that utilizes Bfd as a specific competitor. For this purpose, a STD spectrum was acquired from a solution containing fragment, BfrB and Bfd. […] These fragments were advanced to the next stage, which was focused on uncovering structural information of fragment binding.

The test system of test [4] is wild type P. aeruginosa cells. As to the kind of experiment: Growth response of wild type cells to analog (viable cell count). It is filed as cell-based, Pseudomonas aeruginosa. The note with it: M63 + 4 μM Fe; 15 h post-inoculation; viable cells vs untreated control. The procedure: (§2) To this end, wild type and ΔbfrB cells were cultured in M63 media supplemented with 4 μM Fe, in the presence of different concentrations of analog. […] Since BfrB is not essential, it is likely that the cell can compensate for the absence of the iron storage protein. […] The sudden onset of toxicity observed in the second phase, which is not observed with the wild type cells, is probably related to off-target effects that expose a fitness vulnerability caused by the absence of BfrB. Consequently, it is possible to conclude that the dose-dependent growth defect elicited by 11 or 16 on wild type P. aeruginosa cells is largely a consequence of the interaction between the small molecule inhibitors and BfrB in the bacterial cell. This issue was investigated in additional detail (see below) by probing the phenotypic and biochemical response of wild type cells treated with the small molecule inhibitors.

Test [5] has as its system ΔbfrB P. aeruginosa cells. As to the kind of experiment: Growth response of bfrB deletion mutant cells to analog. It is filed as cell-based, Pseudomonas aeruginosa. Particulars: M63 + 4 μM Fe; 15 h post-inoculation; viable cells vs untreated control. The procedure: as §2
In another test the test system is A. baumannii cells. As to the kind of experiment: CAS assay for siderophore detection. The class given is cell-based, Acinetobacter baumannii. The note with it: analog 64 μM; modified M63 media; 35° C. The method, then:
These experiments were carried out in 48 well-plates in a Synergy H1 microplate spectrophotometer as described above for obtaining A. baumannii growth curves. Cultures treated with analog KM-5-25 at 64 μM final concentration were used in these experiments. The cell-free supernatants (25 μL) collected after the 24-h growth curves had been completed was mixed with 175 μL of the CAS assay reagent (10 mM hexadecyltrimethyl ammonium bromide (HDTMA), 1 mM FeCl3·6H2O, 2 mM azurol S-CAS in 145 mM PIPES buffer, pH 5.9).^64 The absorbance at 630 nm was read in an Epoch2 microplate spectrophotometer after 2 h and used to calculate the percent siderophore (PSU) with the aid of equation 3,^65 where Ar is the absorbance of the reference solution (CAS solution and un-inoculated media) and As is the absorbance of the sample (CAS solution and cell-free supernatant). PSU values were normalized to CFU/mL.
The results are illustrated in FIGS. 8A and 8B with observations made when A. baumannii cells are cultured at 35° C. in modified M63 media treated with analogs KM-5-25 and KM-5-35.

The target of a further test is apo-BfrB (Pseudomonas aeruginosa, UniProt Q9HY79). In words: Fluorescence polarization binding assay, apo-BfrB titrated into fluorescent ligand. Particulars: fluorescence polarization and intensity near emission λmax. The procedure:
Prior to testing the effect that the 4-substituted isoindoline-1,3-dione derivatives might exert on P. aeruginosa cells, the strength of their interaction with BfrB was evaluated in vitro with a fluorescence polarization assay developed based on the intrinsic fluorescence of the isoindoline-1,3-dione moiety.
For orientation: Polarisation of emitted light reports the rotation of a fluorescent probe.

The subject of a further test is P. aeruginosa PAO1. As to the kind of experiment: Effect of analogs on the potency of fluoroquinolone antibiotics, strain PAO1. Particulars: data not shown. The class given is cell-based, Pseudomonas aeruginosa. The method, then: The combined treatment was carried out similarly, ensuring that the final concentration of DMSO was 2%.
Test [6] deals with P. aeruginosa. The note with it: literature value; cited from earlier work.

≈ marks a conversion by molar mass, not a printed value.

apo-BfrB, sequence (Q9HY79 whole entry): as the sequence (Q9HY79 whole entry, the tested form may be a part) above

As a reminder, the IC50 is the midpoint of a concentration-inhibition curve. Read a high IC50 as weaker potency. Take “4-((3-(4-Chloro-2-hydroxyphenyl)propyl)amino)isoindoline-1,3-dione [KM-5-66]”: the IC50 with A. baumannii [1] was below 32 µM; in the test with P. aeruginosa [2], 48 µM. For the same compound, the “A. baumannii MIC” value in the test with A. baumannii [3] fell in the range of 80 to 128 µM.
As for `Cc1cc(NS(=O)(=O)c2ccc(N)cc2)no1` [4-amino-N—(S-methylisoxazol-3-yl)benzenesulfonamide], the “fragment binding to BfrB, STD signal displaced by Bfd” value on BfrB is listed as “bind at the Bfd-binding site”.
The same measure, in the same setting: for `Brc1cccc(-c2nnn[nH]2)c1` [5-(3-bromophenyl)-1H-tetrazole] the value was “bind at the Bfd-binding site”; for `O=C1NC(=O)c2cc(O)ccc21` [5-hydroxyisoindoline-1,3-dione], “bind at the Bfd-binding site”; for `CC(=O)c1ccc2c(c1)NC(=O)CO2` [6-acetyl-2H-benzo[b][1,4]oxazin-3(4H)-one], “bind at the Bfd-binding site”.
Regarding `Nc1cccc2c1C(=O)NC2=O` [Analog 8, reference compound], the “P. aeruginosa IC50” value in the test on P. aeruginosa [2] is given as “Not active”.
With `O=C1NC(=O)c2c(NCc3ccccc3O)cccc21` [Analog 11, 4-((2-Hydroxybenzyl)amino)isoindoline-1,3-dione], in [4], the “growth response of wild type cells” value was “monophasic dose-dependent growth defect”. The IC50 in the test with P. aeruginosa [2] (Pseudomonas aeruginosa) amounted to 258 µM. For the same compound, the “growth response of ΔbfrB mutant cells” value in [5] is reported as “biphasic growth response”.
`O=C1NC(=O)c2c(NCc3cccc(O)c3)cccc21` [Analog 12, 4-((3-Hydroxybenzyl)amino)isoindoline-1,3-dione]: in the test with P. aeruginosa [2], the “P. aeruginosa IC50” value is “Not active”.
For `O=C1NC(=O)c2c(NCCCc3ccc(O)cc3)cccc21` [Analog 13], half-maximal inhibition in the test on P. aeruginosa [2] (Pseudomonas aeruginosa) (IC50) was put at 201 µM.
Still for that read-out and setting: for `O=C1NC(=O)c2c(NCCCc3ccc(O)cc3O)cccc21` [Analog 14] the value was 143 µM; for `COc1cc(O)ccc1CCCNc1cccc2c1C(=O)NC2=O` [Analog 15], 227 µM.
As a reminder, the MIC is the lowest concentration found to suppress growth. For the compound `O=C1NC(=O)c2c(NCCCc3cc(F)ccc3O)cccc21` [JAG-005-006, 4-((3-(5-Fluoro-2-hydroxyphenyl)propyl)amino)isoindoline-1,3-dione], the IC50 in the test on P. aeruginosa [2] (Pseudomonas aeruginosa) worked out at 48 µM. This compound registered a minimum inhibitory concentration (MIC) in the test on A. baumannii [3] of 128 µM (≈ 40.2 µg/mL).
Take `O=C1NC(=O)c2c(NCc3ccc(Br)cc3O)cccc21` [JAG-005-030, 4-((4-Bromo-2-hydroxybenzyl)amino)isoindoline-1,3-dione]: in the test with A. baumannii [1] (Acinetobacter baumannii), the IC50 came to 48 µM. In the test with A. baumannii [3], this compound yielded an MIC of 80 to 128 µM (≈ 27.8 to 44.4 µg/mL).
What is called Kd is the free concentration of one partner at which half of the binding sites on the other are occupied at equilibrium, for simple one-to-one binding. High values mean a looser complex, low ones a tighter complex. As to `O=C1NC(=O)c2c(NCc3cc(Cl)ccc3O)cccc21` [KM-5-25, 4-((5-Chloro-2-hydroxybenzyl)amino)isoindoline-1,3-dione], the IC50 with A. baumannii [1] (Acinetobacter baumannii) and in the test on P. aeruginosa [2] (Pseudomonas aeruginosa) was 64 µM in each case. In the test on A. baumannii cells, the “siderophores produced relative to untreated control, normalized to CFU/mL” value was “approximately 2 fold”. At apo-BfrB, this compound gave a Kd of 2.9 ± 1.9 µM. Moreover, the MIC against A. baumannii [3] was determined as 128 µM (≈ 38.7 µg/mL).
In the case of `O=C1NC(=O)c2c(NCc3cc(Br)ccc3O)cccc21` [KM-5-35, 4-((5-Bromo-2-hydroxybenzyl)amino)isoindoline-1,3-dione], the values for the half-inhibitory concentration (IC50) in the test on A. baumannii [1] (Acinetobacter baumannii) and with P. aeruginosa [2] (Pseudomonas aeruginosa) were 64 µM and 48 µM, respectively. The “siderophores produced relative to untreated control, normalized to CFU/mL” value in the test with A. baumannii cells is on record as “approximately 2 fold”. This compound also gave a Kd on apo-BfrB of 2 ± 1.4 µM. For the same compound, the minimal inhibitory concentration (MIC) with A. baumannii [3] was 80 to 128 µM (≈ 27.8 to 44.4 µg/mL).
`CC(=O)Nc1ccc(Br)cc1` [N-(4-bromophenyl)acetamide]: the “fragment binding to BfrB, STD signal displaced by Bfd” value at BfrB was “bind at the Bfd-binding site”.
Still for that read-out and setting: for `CS(=O)(=O)Nc1ccc(C#N)cc1` [N-(4-cyanophenyl)methanesulfonamide] the value was “bind at the Bfd-binding site”.
As for `CC(C)(O/N=C(\C(=O)N[C@@H]1C(=O)N2C(C(=O)[O-])=C(C[n+]3ccccc3)CS[C@H]12)c1csc(N)n1)C(=O)O` [ceftazidime, reference compound], the “enhancement of antibacterial activity in combination with the small molecule inhibitors of the BfrB-Bfd interaction” value in the test on P. aeruginosa PAO1 is recorded as “no enhancement”.
Regarding `O=C(O)c1cn(C2CC2)c2cc(N3CCNCC3)c(F)cc2c1=O` [ciprofloxacin], in the test on P. aeruginosa [6], the “reported MIC” value was 0.25 µg/mL.
For `CCn1cc(C(=O)O)c(=O)c2cc(F)c(N3CCNCC3)cc21` [norfloxacin], the “reported MIC” value with P. aeruginosa [6] is 0.9 µg/mL.
Take `NC[C@H]1O[C@H](O[C@H]2[C@H](O)[C@@H](O[C@H]3O[C@H](CO)[C@@H](O)[C@H](N)[C@H]3O)[C@H](N)C[C@@H]2N)[C@H](N)C[C@@H]1O` [tobramycin, reference compound]: the “enhancement of antibacterial activity in combination with the small molecule inhibitors of the BfrB-Bfd interaction” value in the test on P. aeruginosa PAO1 is “no enhancement”.
Same read-out and setting: for gentamycin [reference compound] the value was “no enhancement”.
